Where a name gives a salt, the structure may show the parent alone.
What was measured:
[1] = hygroscopicity by dynamic vapor sorption; assay type: physicochemical; settings: transitioned from 0% to 90% relative humidity
[2] = water solubility of the crystalline form in phosphate buffer; assay type: physicochemical; settings: for solubility: pH 6.8 (phosphate buffer; 50 mM where stated)
[3] = pH 7.0 (phosphate buffer), 37° C., after 30 minutes
[4] = aqueous buffer, read-out: water solubility of (S)-1-((R)-3-amino-1-(4-((6-amino-9H-purin-9-yl)methyl)-6-(2,5-difluoro-4-methoxyphenyl)pyridin-3-yl)piperidin-3-yl)-2,2-difluoroethan-1-ol

| SMILES | increase in weight (hygroscopicity by dynamic vapor sorption) [1] [%] | water solubility of (S)-1-((R)-3-amino-1-(4-((6-amino-9H-purin-9-yl)methyl)-6-(2,5-difluoro-4-methoxyphenyl)pyridin-3-yl)piperidin-3-yl)-2,2-difluoroethan-1-ol [2, 3] [µg/mL] | further results |
| --- | --- | --- | --- |
| COc1cc(F)c(-c2cc(Cn3cnc4c(N)ncnc43)c(N3CCC[C@](N)([C@H](O)C(F)F)C3)cn2)cc1F [Example 5, (S)-1-((R)-3-amino-1-(4-((6-amino-9H-purin-9-yl)methyl)-6-(2,5-difluoro-4-methoxyphenyl)pyridin-3-yl)piperidin-3-yl)-2,2-difluoroethan-1-ol Sulfuric Acid Salt] | 6.0 | – | – |
| COc1cc(F)c(-c2cc(Cn3cnc4c(N)ncnc43)c(N3CCC[C@](N)([C@H](O)C(F)F)C3)cn2)cc1F [Example 11, Crystalline L-Tartaric Acid Salt of (S)-1-((R)-3-amino-1-(4-((6-amino-9H-purin-9-yl)methyl)-6-(2,5-difluoro-4-methoxyphenyl)pyridin-3-yl)piperidin-3-yl)-2,2-difluoroethan-1-ol] | – | 540 | – |
| COc1cc(F)c(-c2cc(Cn3cnc4c(N)ncnc43)c(N3CCC[C@](N)([C@H](O)C(F)F)C3)cn2)cc1F [Example 6, (S)-1-((R)-3-amino-1-(4-((6-amino-9H-purin-9-yl)methyl)-6-(2,5-difluoro-4-methoxyphenyl)pyridin-3-yl)piperidin-3-yl)-2,2-difluoroethan-1-ol Sulfuric Acid Salt] | – | 780 | – |
| COc1cc(F)c(-c2cc(Cn3cnc4c(N)ncnc43)c(N3CCC[C@](N)([C@H](O)C(F)F)C3)cn2)cc1F.Cl [Example 1, (S)-1-((R)-3-amino-1-(4-((6-amino-9H-purin-9-yl)methyl)-6-(2,5-difluoro-4-methoxyphenyl)pyridin-3-yl)piperidin-3-yl)-2,2-difluoroethan-1-ol Hydrochloric Acid Salt] | 16 | – | solubility [2, 4]: 220 µg/mL |
| COc1cc(F)c(-c2cc(Cn3cnc4c(N)ncnc43)c(N3CCC[C@](N)([C@H](O)C(F)F)C3)cn2)cc1F.Cl [Example 3, (S)-1-((R)-3-amino-1-(4-((6-amino-9H-purin-9-yl)methyl)-6-(2,5-difluoro-4-methoxyphenyl)pyridin-3-yl)piperidin-3-yl)-2,2-difluoroethan-1-ol Hydrochloric Acid Salt] | – | – | solubility at 30 min ([2]; aqueous buffer, pH 7.0 (phosphate buffer), 37° C., after 30 minutes, read-out: water solubility of (S)-1-((R)-3-amino-1-(4-((6-amino-9H-purin-9-yl)methyl)-6-(2,5-difluoro-4-methoxyphenyl)pyridin-3-yl)piperidin-3-yl)-2,2-difluoroethan-1-ol): 1170 µg/mL |
| COc1cc(F)c(-c2cc(Cn3cnc4c(N)ncnc43)c(N3CCC[C@](N)([C@H](O)C(F)F)C3)cn2)cc1F [Example 4, (S)-1-((R)-3-amino-1-(4-((6-amino-9H-purin-9-yl)methyl)-6-(2,5-difluoro-4-methoxyphenyl)pyridin-3-yl)piperidin-3-yl)-2,2-difluoroethan-1-ol Hydrochloric Acid Salt] | – | 360 | – |
| COc1cc(F)c(-c2cc(Cn3cnc4c(N)ncnc43)c(N3CCC[C@](N)([C@H](O)C(F)F)C3)cn2)cc1F [Example 10, Crystalline L-Malic Acid Salt of (S)-1-((R)-3-amino-1-(4-((6-amino-9H-purin-9-yl)methyl)-6-(2,5-difluoro-4-methoxyphenyl)pyridin-3-yl)piperidin-3-yl)-2,2-difluoroethan-1-ol] | – | 1530 | – |
| COc1cc(F)c(-c2cc(Cn3cnc4c(N)ncnc43)c(N3CCC[C@](N)([C@H](O)C(F)F)C3)cn2)cc1F [Example 2, (S)-1-((R)-3-amino-1-(4-((6-amino-9H-purin-9-yl)methyl)-6-(2,5-difluoro-4-methoxyphenyl)pyridin-3-yl)piperidin-3-yl)-2,2-difluoroethan-1-ol Hydrochloric Acid Salt] | 1.8 | – | solubility [2, 4]: 210 µg/mL |
| COc1cc(F)c(-c2cc(Cn3cnc4c(N)ncnc43)c(N3CCC[C@](N)([C@H](O)C(F)F)C3)cn2)cc1F [Example 8, (S)-1-((R)-3-amino-1-(4-((6-amino-9H-purin-9-yl)methyl)-6-(2,5-difluoro-4-methoxyphenyl)pyridin-3-yl)piperidin-3-yl)-2,2-difluoroethan-1-ol Succinic Acid Salt] | – | 1670 | – |
